# In patent US20090123501A1, “INHIBITION OF THE SH2-DOMAIN CONTAINING PROTEIN TYR-PHOSPHATASE, SHP-1, TO ENHANCE VACCINES” (Baylor College of Medicine, priority 2007, published 2009):
# T1: H-2K^b (Mus musculus, UniProt P01901)
# T1 construct: surface stabilization assay using the TAP1 deficient cell line RMA-S; endogenous in cells; host or cells: RMA-S
# T1 sequence (P01901 22-369): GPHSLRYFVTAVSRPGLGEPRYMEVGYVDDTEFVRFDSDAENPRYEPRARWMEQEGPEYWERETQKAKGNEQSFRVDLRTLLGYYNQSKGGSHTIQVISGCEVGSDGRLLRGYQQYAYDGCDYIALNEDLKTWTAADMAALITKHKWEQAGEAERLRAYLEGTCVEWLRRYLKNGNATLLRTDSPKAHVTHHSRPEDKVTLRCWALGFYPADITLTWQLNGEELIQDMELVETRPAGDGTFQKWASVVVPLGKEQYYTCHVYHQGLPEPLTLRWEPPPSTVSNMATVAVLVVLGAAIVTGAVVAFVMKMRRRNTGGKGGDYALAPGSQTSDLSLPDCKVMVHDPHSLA
# T1 sequence (P01887 21-119 partner): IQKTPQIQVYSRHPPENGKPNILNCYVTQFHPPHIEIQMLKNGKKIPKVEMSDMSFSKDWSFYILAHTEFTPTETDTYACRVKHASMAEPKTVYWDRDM
# T2: H-2K^b (mouse, UniProt P01887 21-119; P01901 22-305, limits assumed)
# T2 construct: whole, on cells;extracellular; MHC class I on RMA-S cells, detected with antibody Y-3 (ATCC-HB176) in a surface stabilization assay; also called MHC class 1 molecule H-2K^b
# T2 sequence (MHC heavy, looked up): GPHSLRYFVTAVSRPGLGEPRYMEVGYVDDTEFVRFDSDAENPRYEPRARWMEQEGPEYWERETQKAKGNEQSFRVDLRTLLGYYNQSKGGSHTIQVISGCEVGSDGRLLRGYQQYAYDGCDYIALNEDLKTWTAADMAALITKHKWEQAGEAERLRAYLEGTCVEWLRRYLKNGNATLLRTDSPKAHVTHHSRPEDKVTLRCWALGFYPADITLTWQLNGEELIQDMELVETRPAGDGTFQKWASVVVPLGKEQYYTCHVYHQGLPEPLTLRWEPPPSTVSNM
# T2 sequence (b2m, looked up): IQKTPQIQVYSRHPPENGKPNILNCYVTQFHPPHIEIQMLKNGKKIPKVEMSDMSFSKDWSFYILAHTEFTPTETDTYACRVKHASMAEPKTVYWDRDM
# T3: H-2D^b (mouse, UniProt P01887 21-119; P01899 25-309)
# T3 construct: whole, on cells;extracellular; MHC class I on RMA-S cells, detected with antibody 28-14-8S (ATCC-HB27) in a surface stabilization assay; also called MHC class 1 molecule H-2D^b
# T3 sequence (MHC heavy, looked up): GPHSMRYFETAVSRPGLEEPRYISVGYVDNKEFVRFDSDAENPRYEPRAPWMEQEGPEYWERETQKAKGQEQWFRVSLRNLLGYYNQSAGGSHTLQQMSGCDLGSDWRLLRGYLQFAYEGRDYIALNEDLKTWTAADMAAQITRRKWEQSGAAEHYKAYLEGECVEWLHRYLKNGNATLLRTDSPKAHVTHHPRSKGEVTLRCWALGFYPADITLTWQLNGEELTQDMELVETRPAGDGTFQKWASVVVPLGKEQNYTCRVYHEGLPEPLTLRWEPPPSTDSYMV
# T3 sequence (b2m, looked up): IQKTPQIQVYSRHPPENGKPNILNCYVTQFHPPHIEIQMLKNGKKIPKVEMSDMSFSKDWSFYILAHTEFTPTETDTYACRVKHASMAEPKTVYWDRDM
# Assays:
# [1] = target: T1, H-2K^b; assay: MHC class I surface stabilization assay on RMA-S cells, H-2Kb; assay type: binding; details: RMA-S cells pulsed with peptide overnight, flow cytometry
# Description: (§1) 10^6 RMA-S cells were incubated overnight at 37° C. with each of the five predicted at the concentrations indicated. Cells were stained with antibodies for H-2K^b (Y-3; ATCC-HB176) or H-2D^b (28-14-8S; ATCC-HB27) followed by a goat anti-mouse-FITC second step and MHC class I surface expression was analyzed by flow cytometry. Specific MFI is the mean fluorescent intensity of the sample-mean fluorescent intensity of goat anti-mouse-FITC second step alone. Error bars represent the standard deviation of triplicate measurements.
# (§2) The binding affinity of the five predicted peptides was tested. In a surface stabilization assay using the TAP1 deficient cell line RMA-S. RMA-S cells were pulsed with peptide, at the indicated concentrations, and incubated overnight. Cells were stained with antibodies for H-2K^b (Y-3; ATCC-HB176) or H-2D^b (28-14-8S; ATCC-HB27) followed by a fluorescent-labeled secondary antibody and MHC class I surface expression was analyzed by flow cytometry.
# [2] = tested on: NFκB signaling; assay: NFκB-dependent secreted alkaline phosphatase reporter in RAW cells; assay type: cell-based, murine; details: transient transfection, IFNγ or LPS stimulation
# Description: (§3) Function of the mutant and wt SHP-1 constructs was tested in RAW cells by transient transfection of SHP-1 vectors along with a reporter construct expressing a secreted alkaline phosphatase driven by either an NFκB or AP-1 dependent promoter. NFκB and AP-1 are major transcription factors stimulated by toll-like receptor (TLR) and cytokine signaling in immune system cells, and represent likely pathways of SHP-1 inhibition on cellular activation. Cells were transfected with the appropriate construct, reporter and then stimulated with interferon-γ (IFNγ) or bacterial lipopolysaccharide (LPS) as ligands for cytokine and TLR receptors respectively.
# [3] = tested on: AP-1 signaling; assay: AP-1-dependent secreted alkaline phosphatase reporter in RAW cells; assay type: cell-based, murine; details: transient transfection, IFNγ or LPS stimulation
# Description: as §3
# [4] = target: T2, H-2K^b; assay: RMA-S surface stabilization assay, flow cytometry with antibody Y-3; reference peptide
# Description: In Table 1, OVA Kb binding peptide […] was used as control for a known good binder.
# as §1, with “10⁶” for “10^6”, “measurements. This is representative of 3 separate studies.” for “measurements.”
# as §2, with “cytometry. […] STEAP₈₄₋₉₁ and STEAP₁₈₆₋₁₉₂ bound with an affinity near that of OVA₂₅₈₋₂₆₅, a well characterized strong binding H-2K^b epitope from chicken ovalbumin. […]” for “cytometry.”
# [5] = target: T3, H-2D^b; assay: RMA-S surface stabilization assay, flow cytometry of MHC class I surface expression
# Description: as §1, with “10⁶” for “10^6”, “measurements. This is representative of 3 separate studies.” for “measurements.”
# as §2, with “cytometry. […] STEAP₈₄₋₉₁ and STEAP₁₈₆₋₁₉₂ bound with an affinity near that of OVA₂₅₈₋₂₆₅, a well characterized strong binding H-2K^b epitope from chicken ovalbumin. […]” for “cytometry.”
molecule,measurement,setting,value
LTFLYTLL [STEAP84-91],relative binding affinity to H-2Kb (MHC class I surface expression),[1],bound with an affinity near that of OVA258-265
RSYRYKLL [STEAP186-192],relative binding affinity to H-2Kb (MHC class I surface expression),[1],bound with an affinity near that of OVA258-265
"dn-SHP-1: phosphatase dead dominant negative SHP-1 C453S mutant construct, HA-tagged (SEQ ID NO:8)",NFκB signaling,[2],enhanced both NFκB and AP-1 signaling
same,AP-1 signaling,[3],enhanced both NFκB and AP-1 signaling
SIINFEKL (also called OVA peptide) [OVA258-265],binding result,[4],binds
LLLGTVHAL (also called LLLGTVHAL) [STEAP262-270],binding result,[5],no binding
